Measured values taken from patent US20260373248A1, “DEGRADABLE PEPTOIDS” (Medici Therapeutics, Inc., priority 2023, published 2026).
Starred links: 1 amine or outer side, 2 acyl side, 3 side chain; linkers in the order of their positions; H or OH if unused. Non-standard residues stand in square brackets, D forms with d. Residues, ends and D or L forms follow the SMILES beside them. Gly(N-(3-decanoyloxypropyl)) = CCCCCCCCCC(=O)OCCCNCC(=O)O; N(3-lauroyloxypropyl)Gly = CCCCCCCCCCCC(=O)OCCCNCC(=O)O; N(2-decanoyloxyethyl)Gly = CCCCCCCCCC(=O)OCCNCC(=O)O; N(2-ethylhexyl)Gly = CCCCC(CC)CNCC(=O)O; X2 = CCCCCCC(CCCC)CN(CC(=O)[*:2])[*:1]; N(CH(CH2OH)2)Gly = O=C(O)CNC(CO)CO; NDecylGly = CCCCCCCCCCNCC(=O)O; NHexGly = CCCCCCNCC(=O)O

Legend:
[1] = Peptoid quantity remaining in liver by HPLC-TOF mass spectrometry; format: in vivo; settings: liver homogenate
Method: Peptoid quantity in liver was determined via high-performance liquid chromatography coupled with time-of-flight mass spectrometer (HPLC-TOF). The entire liver was weighed, and then two sections were isolated using a provided biopsy punch for liver homogenization. Liver homogenate sample was prepared by resuspending 20 mg liver tissue in 400 μL extraction solvent (IPA/MeOH=8/2) containing an internal standard (400 pg/μL) followed by bead homogenization (45 sec per cycle for 3-4 cycles). Homogenized samples were centrifuged at 12,000 rpm for 8 min at 6 °C. The resulting supernatant was collected and stored at −20 °C for further LC analysis. 5 μL of the resulting supernatant sample from solid or liquid tissue was injected into a BEH C8 column on an Agilent 1290 Infinity II liquid chromatograph coupled with an Agilent 6230 LC-TOF system. Concentrations of peptoids were determined by a linear calibration curve (linear range:0.2-50 μg/g for solid tissue). Standard calibration curve solutions were prepared by spiking untreated liver followed by homogenization and centrifugation.

mRNA = mRNA encapsulation (modified Quant-iT RiboGreen assay); format: physicochemical; settings: for mean percent encapsulation of RNA: RiboGreen, without vs with Triton X-100; for % Encapsulation: mRNA
In short: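 Peptoid nanoparticles were incubated with Triton X-100 for 10 min to release entrapped mRNA, then mixed with RiboGreen reagent and read by fluorescence (ex 485 nm/em 530 nm). Percent encapsulation was derived from the ratio of fluorescence without versus with Triton X-100.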

hEPO = test: Quantification of hEPO in serum after IV injection of mRNA (Human EPO ELISA); format: in vivo; settings: Balb/c mice, 2.5 μg mRNA IV, serum after 6 hours
In short: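 Balb/c mice received 2.5 μg mRNA encoding human EPO by IV injection; serum was collected after 6 hours. hEPO was measured by sandwich ELISA (biotin-conjugate, streptavidin-HRP, TMB, A450) against kit standards (mIU/mL) and an external standard (ng/mL), with values interpolated and corrected for dilution.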

luciferase = test: Luciferase expression after local (intramuscular or subcutaneous) administration of mRNA; format: in vivo; settings: mRNA 0.01 mpk, 6 hours; for IM Flux: intramuscular; for SC Flux: subcutaneous
In short: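 Female Balb/c mice (6-8 weeks) received fLuc mRNA in aminolipidated peptoid Nutshells at 0.01 mpk subcutaneously or intramuscularly, or 0.1 mpk intratumorally. At 6 hours, anesthetized mice were given D-luciferin IP and imaged 10 minutes later; harvested organs were also imaged and total photon flux quantified in regions of interest.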

[2] = Delivery vehicle size and polydispersity by dynamic light scattering; format: physicochemical
In short: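 LNPs made by microfluidic mixing of ethanolic peptoid/DSPC/cholesterol/DMG-PEG2000 (20:1.79:7.16:1.84 by weight) with mRNA in 10 mM citrate pH 5.0 at 1:3 by volume, then dialyzed overnight at 4 °C against tris-sucrose pH 7.4. Size and PDI read by dynamic light scattering in PBS.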

firefly luciferase = test: In vivo firefly luciferase expression after intravenous injection of fLuc mRNA delivery vehicles (IVIS imaging); set-up: species or system female Balb/c mice; settings: for Total Flux (luciferase expression): fLuc mRNA, intravenous, Balb/c mice; for Total Flux: mice, 2.5 ug fLuc mRNA intravenously, 6 hours post-injection
In short: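 Female Balb/c mice (6-8 weeks) given 2.5 ug fLuc mRNA in Nutshells IV. At 6 hours, IP D-luciferin (30 mg/mL, 10 μL/g) under isoflurane; IVIS imaging 10 minutes later, then harvested organs imaged ex vivo. Read-out: total photon flux in regions of interest.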

[3] = DLS in PBS, peptoid:DSPC:Cholesterol:DMG-PEG2000 weight ratio 20:1.79:7.16:1.84, mRNA

Row | SMILES | % of injected dose remaining in liver [1] [%] | mean percent encapsulation of RNA (mRNA) [%] | % Encapsulation (mRNA; formulation recipe O5) [%] | hEPO (hEPO) [ng/mL] | IM Flux (luciferase) [p/s] | SC Flux (luciferase) [p/s] | PDI [2, 3] | Particle Size [2, 3] [nm] | Particle Size ([2]; formulation recipe O5) [nm] | Total Flux (luciferase expression) (firefly luciferase; formulation recipe O5) [p/s] | Total Flux (firefly luciferase) [p/s] | further results
1 | CCCCCCCCCCCC(=O)OCCCN(CC(=O)N(CC(=O)N(CC(=O)N(CCCOC(=O)CCCCCCCCCCC)CC(=O)N(CC(=O)N(CC(N)=O)CC(CC)CCCC)CC(CC)CCCC)CC(CC)CCCC)CC(CC)CCCC)C(=O)CNC(CO)CO (stereo not shown) [Compound 51] (H-[N(CH(CH2OH)2)Gly][N(3-lauroyloxypropyl)Gly][N(2-ethylhexyl)Gly][N(2-ethylhexyl)Gly][N(3-lauroyloxypropyl)Gly][N(2-ethylhexyl)Gly][N(2-ethylhexyl)Gly]-NH2) | 16.40 | 80.3 | 91.9 | 591 | 1.84E+08 | 2.26E+08 | 0.128 | 61.4 | 58.4 | 1.50E+09 | 4.42E+09 | % Encapsulation (mRNA; formulation recipe D22): 80.3%; % Encapsulation (mRNA; formulation recipe O6): 91.8%; Particle Size ([2]; formulation recipe D22): 61.4 nm; Particle Size ([2]; formulation recipe O6): 56.7 nm; Total Flux (luciferase expression) (firefly luciferase; formulation recipe D22): 4.42E+09 p/s; Total Flux (luciferase expression) (firefly luciferase; formulation recipe O6): 1.27E+09 p/s
2 | CCCCCCCCCC(=O)OCCCN(CC(N)=O)C(=O)CN(CC(CC)CCCC)C(=O)CN(CCCOC(=O)CCCCCCCCC)C(=O)CN(CCCOC(=O)CCCCCCCCC)C(=O)CN(CC(CC)CCCC)C(=O)CN(CCCOC(=O)CCCCCCCCC)C(=O)CNC(CO)CO (stereo not shown) [Compound 53] (H-[N(CH(CH2OH)2)Gly][Gly(N-(3-decanoyloxypropyl))][N(2-ethylhexyl)Gly][Gly(N-(3-decanoyloxypropyl))][Gly(N-(3-decanoyloxypropyl))][N(2-ethylhexyl)Gly][Gly(N-(3-decanoyloxypropyl))]-NH2) | 0.13 | 36.0 | – | 71.6 | 5.34E+08 | 2.78E+08 | 0.153 | 88.5 | – | – | 4.46E+08 | –
3 | CCCCCCCCCCCC(=O)OCCCN(CC(=O)N(CC(N)=O)CC(CC)CCCC)C(=O)CN(CCCCCC)C(=O)CN(CC(CC)CCCC)C(=O)CN(CCCOC(=O)CCCCCCCCCCC)C(=O)CN(CCCCCC)C(=O)CNC(CO)CO (stereo not shown) [Compound 54] (H-[N(CH(CH2OH)2)Gly][NHexGly][N(3-lauroyloxypropyl)Gly][N(2-ethylhexyl)Gly][NHexGly][N(3-lauroyloxypropyl)Gly][N(2-ethylhexyl)Gly]-NH2) | 8.64 | 33.5 | – | 37.4 | 1.52E+07 | 2.18E+07 | 0.141 | 126.1 | – | – | 3.53E+08 | –
4 | CCCCCCCCCC(=O)OCCCN(CC(=O)N(CC(=O)N(CCCCCC)CC(=O)N(CCCOC(=O)CCCCCCCCC)CC(=O)N(CC(=O)N(CCCCCC)CC(N)=O)CC(CC)CCCC)CC(CC)CCCC)C(=O)CNC(CO)CO (stereo not shown) [Compound 55] (H-[N(CH(CH2OH)2)Gly][Gly(N-(3-decanoyloxypropyl))][N(2-ethylhexyl)Gly][NHexGly][Gly(N-(3-decanoyloxypropyl))][N(2-ethylhexyl)Gly][NHexGly]-NH2) | 4.59 | 26.3 | – | 63.1 | 5.29E+07 | 9.41E+07 | 0.139 | 90.2 | – | – | 6.22E+08 | –
5 | CCCCCCCCCC(=O)OCCN(CC(N)=O)C(=O)CN(CC(CC)CCCC)C(=O)CN(CCOC(=O)CCCCCCCCC)C(=O)CN(CCOC(=O)CCCCCCCCC)C(=O)CN(CC(CC)CCCC)C(=O)CN(CCOC(=O)CCCCCCCCC)C(=O)CNC(CO)CO (stereo not shown) [Compound 56] (H-[N(CH(CH2OH)2)Gly][N(2-decanoyloxyethyl)Gly][N(2-ethylhexyl)Gly][N(2-decanoyloxyethyl)Gly][N(2-decanoyloxyethyl)Gly][N(2-ethylhexyl)Gly][N(2-decanoyloxyethyl)Gly]-NH2) | 24.83 | 23.8 | 89.6 | 551 | 5.78E+07 | 8.24E+07 | 0.234 | 102.4 | 62.4 | 6.97E+08 | 2.42E+09 | % Encapsulation (mRNA; formulation recipe O3): 86.9%; Particle Size ([2]; formulation recipe O3): 57.9 nm; Total Flux (luciferase expression) (firefly luciferase; formulation recipe O3): 5.66E+08 p/s
6 | CCCCCCCCCCN(CC(=O)N(CC(=O)N(CCCOC(=O)CCCCCCCCC)CC(N)=O)CC(CC)CCCC)C(=O)CN(CC(CC)CCCC)C(=O)CN(CCCOC(=O)CCCCCCCCC)C(=O)CN(CC(CC)CCCC)C(=O)CNC(CO)CO (stereo not shown) [Compound 58] (H-[N(CH(CH2OH)2)Gly][N(2-ethylhexyl)Gly][Gly(N-(3-decanoyloxypropyl))][N(2-ethylhexyl)Gly][NDecylGly][N(2-ethylhexyl)Gly][Gly(N-(3-decanoyloxypropyl))]-NH2) | −1.37 | 78.1 | 92.8 | 386 | 5.53E+08 | 1.99E+07 | 0.159 | 70.4 | 56.3 | 5.84E+08 | 3.94E+09 | % Encapsulation (mRNA; formulation recipe D22): 78.1%; % Encapsulation (mRNA; formulation recipe O8): 92.9%; Particle Size ([2]; formulation recipe D22): 70.4 nm; Particle Size ([2]; formulation recipe O8): 57.5 nm; Total Flux (luciferase expression) (firefly luciferase; formulation recipe D22): 3.94E+09 p/s; Total Flux (luciferase expression) (firefly luciferase; formulation recipe O8): 1.02E+09 p/s
7 | CCCCCCCCCCCC(=O)OCCCN(CC(N)=O)C(=O)CN(CC(CC)CCCC)C(=O)CN(CCCCCCCCCC)C(=O)CN(CC(CC)CCCC)C(=O)CN(CCCOC(=O)CCCCCCCCCCC)C(=O)CN(CC(CC)CCCC)C(=O)CNC(CO)CO (stereo not shown) [Compound 59] (H-[N(CH(CH2OH)2)Gly][N(2-ethylhexyl)Gly][N(3-lauroyloxypropyl)Gly][N(2-ethylhexyl)Gly][NDecylGly][N(2-ethylhexyl)Gly][N(3-lauroyloxypropyl)Gly]-NH2) | −1.85 | 95.2 | – | 112 | 6.35E+07 | 8.71E+08 | 0.106 | 79.5 | – | – | 6.47E+08 | –
8 | CCCCCCCCCC(=O)OCCCN(CC(=O)N(CC(=O)N(CC(=O)N(CCCOC(=O)CCCCCCCCC)CC(=O)N(CC(N)=O)CC(CCCC)CCCCCC)CC(CC)CCCC)CC(CCCC)CCCCCC)C(=O)CN(CC(CC)CCCC)C(=O)CNC(CO)CO (stereo not shown) [Compound 61] (H-[N(CH(CH2OH)2)Gly][N(2-ethylhexyl)Gly][Gly(N-(3-decanoyloxypropyl))][X2][N(2-ethylhexyl)Gly][Gly(N-(3-decanoyloxypropyl))][X2]-NH2) | 13.39 | 95.1 | – | 428 | 1.45E+08 | 1.99E+08 | 0.081 | 75.4 | – | – | 1.96E+09 | –
